Experiment [1] deals with MDA-MB-231. Put plainly: Antiproliferative activity against human MDA-MB-231 cells harboring wild type BRCA and c-Met amplification assessed as inhibition of cell growth incubated for 7 days by MTT assay. It is filed as functional, cell-based. Conditions: MDA-MB-231, 168 h. Background: Tetrazolium dyes change colour on reduction, which living cells bring about.
Another experiment relates to MDA-MB-468. Put plainly: Antiproliferative activity against human MDA-MB-468 cells harboring wild type BRCA1/2, HR-proficient and non-c-Met amplification assessed as inhibition of cell growth incubated for 7 days by MTT assay. Type of experiment: functional, cell-based. The conditions noted are these: MDA-MB-468, 168 h.
Experiment [2] can be described thus: Antiproliferative activity against human Olaparib-resistant HCC1937 cells harboring BRCA1 mutant and PARP1 overexpression assessed as inhibition of cell growth incubated for 7 days by MTT assay. It is filed as functional, cell-based. The conditions noted are these: Olaparib-resistant HCC1937, 168 h.
Experiment [3] relates to Olaparib-resistant HCT116. The experiment in a line: Antiproliferative activity against human Olaparib-resistant HCT116 cells harboring BRCA2 mutant assessed as inhibition of cell growth incubated for 7 days by MTT assay. Type of experiment: functional, cell-based. Conditions: Olaparib-resistant HCT116, 168 h.
Experiment [4] concerns MDA-MB-231. Put plainly: Induction of apoptosis in human MDA-MB-231 cells assessed as live cells at 1 uM incubated for 4 days by Annexin V-FITC/PI staining based flow cytometry analysis (reference value: 94.6%). The conditions noted are these: time 4 day. It is filed as functional.
In experiment [5] the test system is MDA-MB-231. The experiment in a line: Induction of apoptosis in human MDA-MB-231 cells assessed as early apoptotic cells at 1 uM incubated for 4 days by Annexin V-FITC/PI staining based flow cytometry analysis (reference value: 3.88%). It is filed as functional. Conditions: time 4 day. A general note: A flow cytometer gives signals particle by particle.
Experiment [6] deals with MDA-MB-231. The experiment in a line: Induction of apoptosis in human MDA-MB-231 cells assessed as late apoptotic cells at 1 uM incubated for 4 days by Annexin V-FITC/PI staining based flow cytometry analysis (reference value: 0.81%). It is filed as functional. The conditions noted are these: time 4 day.
Experiment [7] has as its system MDA-MB-231. The experiment in a line: Induction of apoptosis in human MDA-MB-231 cells assessed as dead cells at 1 uM incubated for 4 days by Annexin V-FITC/PI staining based flow cytometry analysis (reference value: 0.72%). It is filed as functional. Conditions: time 4 day.
Experiment [8] has as its system MDA-MB-231. The experiment in a line: Induction of apoptosis in human MDA-MB-231 cells assessed as live cells at 1 uM incubated for 4 days in presence of crizotinib at 0.5 uM by Annexin V-FITC/PI staining based flow cytometry analysis (reference value: 94.6%). It is filed as functional. Conditions: time 4 day.
Experiment [9] concerns MDA-MB-231. The experiment in a line: Induction of apoptosis in human MDA-MB-231 cells assessed as early apoptotic cells at 1 uM incubated for 4 days in presence of crizotinib at 0.5 uM by Annexin V-FITC/PI staining based flow cytometry analysis (reference value: 3.88%). It is filed as functional. Conditions: time 4 day.
The test system of experiment [10] is MDA-MB-231. The experiment in a line: Induction of apoptosis in human MDA-MB-231 cells assessed as late apoptotic cells at 1 uM incubated for 4 days in presence of crizotinib at 0.5 uM by Annexin V-FITC/PI staining based flow cytometry analysis (reference value: 0.81%). It is filed as functional. Conditions: time 4 day.
Experiment [11] deals with MDA-MB-231. The experiment in a line: Induction of apoptosis in human MDA-MB-231 cells assessed as dead cells at 1 uM incubated for 4 days in presence of crizotinib at 0.5 uM by Annexin V-FITC/PI staining based flow cytometry analysis (reference value: 0.72%). It is filed as functional. Conditions: time 4 day.
For experiment [12], the system named is MDA-MB-231. The experiment in a line: Antitumor activity against human MDA-MB-231 cells xenografted in female Balb/c nude mouse assessed as tumor growth inhibition at 50 mg/kg/day, ip qd administered for 28 days relative to control. It is filed as functional. The conditions noted are these: time 28 day.
Experiment [13] has as its system Olaparib-resistant HCT116. Put plainly: Antitumor activity against human Olaparib-resistant HCT116 cells xenografted in female Balb/c nude mouse assessed as tumor growth inhibition at 50 mg/kg/day, ip qd administered for 21 days relative to control. It is filed as functional. The conditions noted are these: time 21 day.
Experiment [14] deals with Olaparib-resistant HCT116. Put plainly: Antitumor activity against human Olaparib-resistant HCT116 cells xenografted in female Balb/c nude mouse assessed as tumor growth inhibition at 50 mg/kg/day, ip qd administered for 21 days in presence of crizotinib at 25 mg/kg/day, po qd relative to control. It is filed as functional. Conditions: time 21 day. On the technique in general: A xenograft is tissue or cells of one species grown in another, often human tumour cells in immunodeficient mice.

For experiment [15], the system named is MDA-MB-231. Put plainly: Antitumor activity against human MDA-MB-231 cells xenografted in female Balb/c nude mouse assessed as reduction in tumor weight at 50 mg/kg/day, ip qd administered for 28 days in presence of crizotinib at 25 mg/kg, po qd. Type of experiment: functional, organism-based. The conditions noted are these: time 28.0 day.
Experiment [16] deals with Olaparib-resistant HCT116. Put plainly: Antitumor activity against human Olaparib-resistant HCT116 cells xenografted in female Balb/c nude mouse assessed as reduction in tumor weight at 50 mg/kg/day, ip qd administered for 21 days in presence of crizotinib at 25 mg/kg/day, po qd. It is filed as functional, organism-based. Conditions: time 21.0 day.
Experiment [17] deals with Olaparib-resistant HCT116. The experiment in a line: Antitumor activity against human Olaparib-resistant HCT116 cells xenografted in female Balb/c nude mouse assessed as reduction in tumor weight at 25 mg/kg/day, po qd administered for 21 days in presence of olaparib at 50 mg/kg/day, ip qd. Type of experiment: functional, organism-based. Conditions: time 21.0 day.
Experiment [18] deals with MDA-MB-231. The experiment in a line: Antitumor activity against human MDA-MB-231 cells xenografted in female Balb/c nude mouse assessed as reduction in tumor weight at 50 mg/kg/day, ip qd administered for 28 days. It is filed as functional, organism-based. The conditions noted are these: time 28.0 day.
Experiment [19] concerns Olaparib-resistant HCT116. The experiment in a line: Antitumor activity against human Olaparib-resistant HCT116 cells xenografted in female Balb/c nude mouse assessed as reduction in tumor weight at 50 mg/kg/day, ip qd administered for 21 days. Type of experiment: functional, organism-based. The conditions noted are these: time 21.0 day.
In experiment [20] the test system is MDA-MB-231. Put plainly: Induction of apoptosis in human MDA-MB-231 cells assessed as live cells at 0.5 uM incubated for 4 days by Annexin V-FITC/PI staining based flow cytometry analysis (reference value: 94.6%). It is filed as functional. Conditions: time 4 day.
Experiment [21] relates to MDA-MB-231. Put plainly: Induction of apoptosis in human MDA-MB-231 cells assessed as early apoptotic cells at 0.5 uM incubated for 4 days by Annexin V-FITC/PI staining based flow cytometry analysis (reference value: 3.88%). Type of experiment: functional. Conditions: time 4 day.
Experiment [22] deals with MDA-MB-231. Put plainly: Induction of apoptosis in human MDA-MB-231 cells assessed as late apoptotic cells at 0.5 uM incubated for 4 days by Annexin V-FITC/PI staining based flow cytometry analysis (reference value: 0.81%). Type of experiment: functional. Conditions: time 4 day.
In experiment [23] the test system is MDA-MB-231. Put plainly: Induction of apoptosis in human MDA-MB-231 cells assessed as dead cells at 0.5 uM incubated for 4 days by Annexin V-FITC/PI staining based flow cytometry analysis (reference value: 0.72%). Type of experiment: functional. The conditions noted are these: time 4 day.
The test system of experiment [24] is MDA-MB-231. Put plainly: Induction of apoptosis in human MDA-MB-231 cells assessed as live cells at 0.5 uM incubated for 4 days in presence of olaparib at 1 uM by Annexin V-FITC/PI staining based flow cytometry analysis (reference value: 94.6%). Type of experiment: functional. The conditions noted are these: time 4 day.
In experiment [25] the test system is MDA-MB-231. The experiment in a line: Induction of apoptosis in human MDA-MB-231 cells assessed as early apoptotic cells at 0.5 uM incubated for 4 days in presence of olaparib at 1 uM by Annexin V-FITC/PI staining based flow cytometry analysis (reference value: 3.88%). Type of experiment: functional. Conditions: time 4 day.
In experiment [26] the test system is MDA-MB-231. Put plainly: Induction of apoptosis in human MDA-MB-231 cells assessed as late apoptotic cells at 0.5 uM incubated for 4 days in presence of olaparib at 1 uM by Annexin V-FITC/PI staining based flow cytometry analysis (reference value: 0.81%). It is filed as functional. The conditions noted are these: time 4 day.
In experiment [27] the test system is MDA-MB-231. Put plainly: Induction of apoptosis in human MDA-MB-231 cells assessed as dead cells at 0.5 uM incubated for 4 days in presence of olaparib at 1 uM by Annexin V-FITC/PI staining based flow cytometry analysis (reference value: 0.72%). Type of experiment: functional. The conditions noted are these: time 4 day.
Experiment [28] has as its system MDA-MB-231. The experiment in a line: Antitumor activity against human MDA-MB-231 cells xenografted in female Balb/c nude mouse assessed as tumor growth inhibition at 25 mg/kg/day, po qd administered for 28 days relative to control. Type of experiment: functional. The conditions noted are these: MDA-MB-231, 672 h, time 28 day, read-out: TGI.
Experiment [29] deals with MDA-MB-231. Put plainly: Antitumor activity against human MDA-MB-231 cells xenografted in female Balb/c nude mouse assessed as tumor growth inhibition at 25 mg/kg/day, po qd administered for 28 days in presence of olaparib 50 mg/kg, ip qd relative to control. It is filed as functional. The conditions noted are these: MDA-MB-231, 672 h, time 28 day, read-out: TGI.
Experiment [30] deals with Olaparib-resistant HCT116. Put plainly: Antitumor activity against human Olaparib-resistant HCT116 cells xenografted in female Balb/c nude mouse assessed as tumor growth inhibition at 25 mg/kg/day, po qd administered for 21 days relative to control. Type of experiment: functional. Conditions: Olaparib-resistant HCT116, 504 h, time 21 day, read-out: TGI.
Experiment [31] has as its system Olaparib-resistant HCT116. Put plainly: Antitumor activity against human Olaparib-resistant HCT116 cells xenografted in female Balb/c nude mouse assessed as tumor growth inhibition at 25 mg/kg/day, po qd administered for 21 days in presence of olaparib at 50 mg/kg/day, ip qd relative to control. It is filed as functional. Conditions: Olaparib-resistant HCT116, 504 h, time 21 day, read-out: TGI.

Experiment [32] deals with MDA-MB-231. Put plainly: Antitumor activity against human MDA-MB-231 cells xenografted in female Balb/c nude mouse assessed as reduction in tumor weight at 25 mg/kg/day, po qd administered for 28 days. Type of experiment: functional, organism-based. The conditions noted are these: time 28.0 day.
Experiment [33] relates to MDA-MB-231. Put plainly: Antitumor activity against human MDA-MB-231 cells xenografted in female Balb/c nude mouse assessed as reduction in tumor weight at 25 mg/kg/day, po qd administered for 28 days in presence of olaparib 50 mg/kg, ip qd. It is filed as functional, organism-based. Conditions: time 28.0 day.
Experiment [34] deals with Olaparib-resistant HCT116. Put plainly: Antitumor activity against human Olaparib-resistant HCT116 cells xenografted in female Balb/c nude mouse assessed as reduction in tumor weight at 25 mg/kg/day, po qd administered for 21 days. It is filed as functional, organism-based. Conditions: time 21.0 day.

The source made the active and inactive calls. The calls are words filed in the database; no cut-off is given here.

A word on the IC50: it is the concentration that gives 50% inhibition. By TGI is commonly meant how far tumour growth fell short of that in controls. As for `O=C(c1cc(Cc2n[nH]c(=O)c3ccccc23)ccc1F)N1CCN(C(=O)C2CC2)CC1` [OLAPARIB], the IC50 in the experiment on MDA-MB-231 [1] was 30.7 µM; in the experiment with MDA-MB-468, 9.23 µM; in [2] it was 18.9 µM; in experiment [3], 50.8 µM. In addition, the Activity in the experiment on MDA-MB-231 [4] is 88.9%; with MDA-MB-231 [5], 3.77%; in the experiment with MDA-MB-231 [6], 2.48%; in the experiment on MDA-MB-231 [7], 4.86%; with MDA-MB-231 [8], 76.9%; with MDA-MB-231 [9], 7.12%. Further, the Activity in the experiment with MDA-MB-231 [10] is given as 6.57%; in the experiment with MDA-MB-231 [11], 9.45%. Also, the TGI with MDA-MB-231 [12] is given as 27%; in experiment [13], 26%; in experiment [14], 48%. Besides, the result (in the experiment with MDA-MB-231 [15]; in experiment [16]; in experiment [17]; with MDA-MB-231 [18]; in [19]) was Active.
`C[C@@H](Oc1cc(-c2cnn(C3CCNCC3)c2)cnc1N)c1c(Cl)ccc(F)c1Cl` [CRIZOTINIB]: the IC50 in the experiment on MDA-MB-231 [1] worked out at 8.37 µM; in the experiment with MDA-MB-468, 4.54 µM; in [2], 5.23 µM; in [3], 3.15 µM. For the same compound, the Activity in the experiment on MDA-MB-231 [20] was determined as 90.9%; with MDA-MB-231 [21], 4.75%; in the experiment with MDA-MB-231 [22], 2.08%; in the experiment with MDA-MB-231 [23], 2.23%; in the experiment with MDA-MB-231 [24], 76.9%; with MDA-MB-231 [25] it was 7.12%. Moreover, the Activity in the experiment with MDA-MB-231 [26] is 6.57%; in the experiment with MDA-MB-231 [27], 9.45%. For the same compound, the inhibition in vivo at 25 mg/kg/day with MDA-MB-231 [28] came out at 6%; with MDA-MB-231 [29], 69%; in [30], 21%; in [31], 48%. Besides, the outcome (in the experiment on MDA-MB-231 [32]; in the experiment with MDA-MB-231 [33]; in [34]) was Active.

The values above are taken from ChEMBL document CHEMBL5518224, “Rational Design of PARP1/c-Met Dual Inhibitors for Overcoming PARP1 Inhibitor Resistance Induced by c-Met Overexpression” (J Med Chem, 2024).
